Common to all, as to assay type: physicochemical
Data set [1] can be described thus: UV shielding properties: UV spectra in ethanol. An excerpt:
The UV shielding properties of the bisbiphenyl triazine derivatives were investigated by measuring their UV spectra in ethanol. In the following table the investigated absorption maxima (λmax) together with the corresponding A^1%1cm values are listed.

Data set [2] can be described thus: Measurement of solubility in Capric/Caprylic Triglyceride. The conditions noted are these: solvent Capric/Caprylic Triglyceride.
Data set [3] in a line: UV spectrum in tetrahydrofurane (synthesis examples). The conditions noted are these: for ε: at λmax.
Data set [4] is described as follows: Measurement of photostability: irradiation of highly diluted ethanol solution, analysis by UV-spectroscopy. The following applies: first order kinetic model; diluted solution in ethanol; half-life under COLIPA standard sun irradiation. The procedure:
The method used for assessment of photostability is based on the irradiation of a highly diluted solution of the UV-filter. The analysis after certain doses of irradiation was performed by UV-spectroscopy. The concentration of the UV-absorber in ethanol is adjusted to values between […], such that the absorbance of the solution in cuvette of 1 cm optical pathlength is equal or smaller than 0.2. The mutual protection of filter molecules can be excluded under such conditions.
Prior to irradiation of a sample the UVB-intensity at the sample position is measured with a UV-radiometer (RM-12, Dr. Grobel Electronic GmbH). […] Therefore the relationship of the reading of the RM-12 radiometer and the corresponding spectral output of the lamp is known, and one is able to determine the wavelength-resolved intensities by measuring the UVB-intensity. […]
For sample irradiation the highest possible intensity was used (4.5 mW/cm^2 UVB-intensity measured with the Macam 103 radiometer). […] After certain intervals of irradiation, the samples were analysed in a UV-spectrometer (Perkin Elmer, Lambda 16).
From the absorbance values at each dose of irradiation the concentration may be calculated using Lambert-Beer's law. […]

Turning to `CC[Si](CC)(CC)CCCOc1ccc(-c2nc(-c3ccc(-c4ccccc4)cc3)nc(-c3ccc(-c4ccccc4)cc3)n2)c(O)c1` [S-2], the “Absorption maximum λmax” value in data set [1] turned out to be 319. Also, in data set [2], the “Solubility in Capric/Caprylic Triglyceride” value is 22.8 w-%. In data set [3], this molecule gave a λmax of 319 nm and a ε of 76300 M⁻¹ cm⁻¹. In data set [4], this molecule registered a Half time of 412.1 h.

Turning to `CCO[Si](CCCOc1ccc(-c2nc(-c3ccc(-c4ccccc4)cc3)nc(-c3ccc(-c4ccccc4)cc3)n2)c(O)c1)(OCC)OCC` [S-8], the “Absorption maximum λmax” value in data set [1] worked out at 320. Also, in data set [3], the λmax was 320 nm and the ε came to 75800 M⁻¹ cm⁻¹. Besides, in data set [4], the Half time turned out to be 342.2 h.

Values taken from patent publication US8986662B2, “Use of silane and siloxane bis(biphenyl) triazine derivatives as UV absorbers” (BASF SE, priority 2010, dated 2015).
